Measurements: patent US20160271162A1, “D-ALANINE PHOSPHORAMIDE PRONUCLEOTIDES OF 2'-METHYL 2'-FLURO GUANOSINE NUCLEOSIDE COMPOUNDS FOR THE TREATMENT OF HCV” (IDENIX PHARMACEUTICALS, LLC, priority 2013, published 2016)

Key:
HCV genotype 1b replicon = assay: HCV replicon assay (luciferase reporter); type: cell-based; conditions: Hepatitis C virus, Huh-7-derived Zluc cells, 72 hours incubation
Experimental: Huh-7-derived cell line (Zluc) that harbors an HCV genotype 1b replicon and a luciferase reporter gene was grown in Dulbecco's Modified Eagle Medium (DMEM) supplemented with 10% fetal bovine serum, 2 mM GlutaMAX, 1% MEM nonessential amino acids, 100 IU/mL penicillin, 100 μg/mL streptomycin, and 0.5 mg/mL Geneticin® (G418). For dose response testing the cells were seeded in 96-well plates at 7.5×10^3 cells per well in a volume of 50 μl, and incubated at 37° C./5% CO2. Drug solutions were made up freshly in Huh-7 media as 2× stocks. Ten additional 5-fold dilutions were prepared from these stocks in DMEM without G418. At least three hours after Zluc cells were seeded, drug treatment was initiated by adding 50 μL of drug dilutions to the plates in duplicate. Final concentrations of drug ranged from 100 μM to 0.0000512 μM. […] After 72 hours of incubation, the inhibition of HCV replication was measured by quantification of photons emitted after mono-oxygenation of 5′-fluoroluciferin to oxyfluoroluciferin by firefly luciferase. […] The plates were shaken gently for 3 min at room temperature and luminescence was measured on a Victor^3 V 1420 multilabel counter (Perkin Elmer) with a 1 second read time using a 700 nm cut-off filter. The EC50 values were calculated from dose response curves from the resulting best-fit equations determined by Microsoft Excel and XLfit 5.2 software. […]

[1] = Cytotoxicity evaluation, CellTiter-Blue cell viability; type: cell-based; conditions: human, Zluc cells (HCV replicon), CellTiter-Blue Cell Viability Assay
Experimental: For cytotoxicity evaluation, Zluc cells were treated with compound as described herein, and cell viability was monitored using the CellTiter-Blue Cell Viability Assay (Promega) by adding 20 μL of the assay solution to each well. The plates were then incubated at 37° C./5% CO2 for at least 3 hours. Fluorescence was detected in plates using excitation and emission wavelengths of 531 and 595 nm, respectively, in a Victor^3 V 1420 multilabel counter (Perkin Elmer) and CC50 values were determined using Microsoft Excel and XLfit 5.2 software.

[2] = Liver pharmacokinetics following a single oral dose in CD-1 mice; type: in vivo; conditions: 2′-Me-2′-F-G TP in liver, single oral dose 10 mg/kg in PEG 200, CD-1 male mice, 4, 12 and 24 hours post dose
Experimental: A single oral dose of test compound at 10 mg/kg for 104a and 104b in PEG 200 (dose volume 5 mL/kg) is administered to nine CD-1 male mice. Five untreated animals are used for the collection of control plasma and liver. Terminal plasma and liver samples are collected from three animals per time point at 4, 12 and 24 hours post dose. Liver specimens are collected from all animals immediately after the incision. Freezing forceps stored in liquid nitrogen are used to freeze the liver before excision.
Liver samples are analyzed for the active species 2′-methyl-2′-fluoroguanosine triphosphate (2′-Me-2′-F-G TP) by LC-MS/MS. 2′-Me-2′-F-G TP levels are assayed by homogenizing (on ice) a known weight of mouse liver with 4× volume of 0.95 M trichloroacetic acid (TCA). Internal standard solution is added to the homogenate followed by neutralization with 20% ammonium hydroxide solution and addition of 500 μL 1% formic acid. The tissue samples are extracted by weak anion exchange solid phase extraction (SPE). Post extraction, the eluates are evaporated under nitrogen, followed by reconstitution before injection onto the LC-MS/MS system. […] The analyte is detected and quantified by tandem mass spectrometry in positive ion mode on an API4000 equipped with a Turbo Ionspray® interface. […]

CCOc1nc(N)nc2c1ncn2C1O[C@H](CO[P@@](=O)(N[C@H](C)C(=O)OC(C)C)Oc2ccccc2)[C@@H](O)[C@@]1(C)F (stereo partly drawn) [Compound 104b]
EC50 (HCV genotype 1b replicon): 0.25 to 1 µM
CC50 at 72 h [1]: > 50 µM
Mouse Liver TP AUC0-24 [2]: +++ (500 < +++ ≦ 2000)

CCOc1nc(N)nc2c1ncn2C1O[C@H](COP(=O)(N[C@H](C)C(=O)OC(C)C)Oc2ccccc2)[C@@H](O)[C@@]1(C)F (stereo partly drawn) [Compound 104a]
EC50 (HCV genotype 1b replicon): 0.25 to 1 µM
CC50 at 72 h [1]: > 50 µM
Mouse Liver TP AUC0-24 [2]: +++ (500 < +++ ≦ 2000)
